From patent US11746124B2, “Chemoselective thiol-conjugation with alkene or alkyne-phosphonamidates” (FORSCHUNGSVERBUND BERLIN E.V., priority 2016, dated 2023)

Experiments:
[1] = Second order rate constant of glutathione addition to EDANS phosphonamidate, fluorescence HPLC; settings: 0.1 mM amidate, 0.1 mM glutathione, 50 mM NH4HCO3, 1 mM EDTA, pH 8.5, 1% DMF
Experimental: To study the kinetics of the thiol addition to alkyne-phosphonamidates at low concentrations, a fluorescent EDANS-based phosphonamidate was synthesized as described in chapter 1.1. Addition of glutathione as a model substrate was probed over time by fluorescence HPLC. Peak integration and normalization to unconjugated EDANS as an internal standard was applied to determine the second order rate constant of the reaction. A second order rate constant of 37.32±0.41 I/mol*s was measured.
Glutathione addition to the EDANS-phosphonamidate was conducted at a final concentration of 0.1 mM amidate, 0.1 mM glutathione and 0.02 mM EDANS as an internal standard in 50 mM NH4HCO3-buffer containing 1 mM EDTA at pH 8.5 with 1% DMF. 2.5 μl of a 20 mM stock solution of EDANS-phosphonamidate in DMF was premixed with 488 μl buffer and 5 μl of a 2 mM stock solution of EDANS in a 1:1 mixture of DMF and buffer. The reaction was started by the addition of 5 μl of a 10 mM solution of glutathione in buffer. 10 μl samples were drawn at 0, 15, 30, 60, 120, 240 and 480 minutes and acidified with 190 μl 10 mM NaOAc-Buffer (pH 5.0) and subjected to fluorescence HPLC analysis.

[2] = Stability of a vinyl phosphonamidate to different pHs by 31P-NMR in aqueous buffers; type: physicochemical; settings: room temperature
Description: In a first experiment, Ethyl-N-phenyl-P-vinyl-phosphonamidate was chosen to measure stability.

[3] = Hydrolytic decay of the GSH-phosphonamidate conjugate in aqueous buffer, 31P NMR over 24 hours; type: physicochemical
Experimental: The conjugate could be isolated by semipreparative HPLC under basic conditions as a diastereomeric mixture in a yield of 61%. Having reasonable quantities of this water soluble phosphonamidate-conjugate in hand, studies could be performed in order to determine the hydrolytic properties of the phosphorus-nitrogen bond. For these studies a […] in aqeuous buffer was prepared and the hydrolysis of the phosphonamidate was characterized by monitoring the decay of the conjugate against the standard by means of ^31P NMR over 24 hours.

[4] = Rate of glutathione addition to ethyl-N-phenyl alkynyl phosphonamidate, HPLC-UV; settings: reaction with glutathione, after 15 min at pH 8.5
Experimental: The rate of the reaction was determined by HPLC. Glutathione was added to a solution of ethyl-N-phenyl alkynyl phosphonamidate in aqueous buffer at slightly basic pH. The reaction was stopped after several time points by the addition of an acidic buffer and analyzed by HPLC-UV, referring to inosine as an internal standard. FIG. 2 refers to the consumption of ethyl-N-phenyl alkynyl phosphonamidate in the reaction with glutathione at pH 8.5. HPLC UV traces were taken at different time points. Experiment was performed in triplicate.

In the case of `C#CP(=O)(Nc1ccc(C(=O)NCCNc2cccc3c(S(=O)(=O)O)cccc23)cc1)OCC` (stereo not drawn) [EDANS-based phosphonamidate, 5-((2-(O-Ethyl-P-ethynyl-phosphonamidato-N-benzoyl)ethyl)amino)naphthalene-1-sulfonic acid], the “second order rate constant of the thiol addition” value [1] was 37.32±0.41 I/mol*s.
With `C=CP(=O)(Nc1ccccc1)OCC` (stereo not drawn) [Ethyl-N-phenyl-P-vinyl-phosphonamidate] the “stability to different pHs over time” value ([2]; aqueous buffers) was “stable over a broad pH range” and the “stability under strong acidic conditions” value ([2]; strong acidic conditions) was “P—N-bond cleavage occurred”.
In the case of `CCOP(=O)(/C=C\SC[C@H](NC(=O)CC[C@H](N)C(=O)O)C(=O)NCC(=O)O)Nc1ccccc1` (stereo partly drawn) [GSH-phosphonamidate conjugate, (Ethyl-N-phenyl-P-ethenyl-phosphonamidate)-S-glutathion conjugate], the “hydrolytic decay of the conjugate” value ([3]; slight acidic conditions, 150 mM NH4OAc-buffer, pH 4.76) was “stable over the duration of the measurement” and the “hydrolytic decay of the conjugate” value ([3]; strong acidic conditions, 1 M HCL, pH 0.36) was “rapid decomposition”.
With `C#CP(=O)(Nc1ccccc1)OCC` (stereo not drawn) [alkynyl phosphonamidate, Ethyl-N-phenyl-P-ethynyl-phosphonamidate] the “conversion of the alkynyl phosphonamidate starting material” value [4] was “more than 95%”.
